Reference: patent publication US12503485B2, “Human aminosterol ENT-03 compounds, related compositions comprising the same, and methods of using the same” (Enterin, Inc., priority 2019, dated 2025)
Each block holds one molecule with its values, some of them ahead of it.

Legend:
[1] = system: stomach tissues gene expression; assay: Stomach RNA-sequencing, effect size evaluation of treatment contrasts; type: in vivo, mice
Experimental: (§1) Male C57Bl/6 mice, aged 20 and 78 weeks, were obtained from Jackson labs. Animals were exposed to 12 hr light dark cycles and provided Teklad standard mouse diet and water ad lib.
(§2) Animals were dosed once daily by oral gavage in the morning for a total of 14 days. Animals were fasted 3-4 hours prior to dosing and at least 1 hour following dosing, with fasting not to exceed 6 hours. The test article was dissolved in 0.5% hydroxypropylcellulose in water. On day 15 the animals were euthanized by CO2 asphyxiation, necropsied, and tissues prepared for histology and RNAseq analysis.
Samples of stomach tissues from the mice were analysed by RNA-sequencing on an Illumina platform.
A four-fold change in expression between groups was used as a measure of pseudo-significance in the absence of replicate samples. At this threshold, differentially expressed genes were identified in all contrasts. […]

stomach mRNA = assay: Stomach transcriptome (RNAseq) after oral ENT-01 in old mice; type: in vivo; conditions: old mice after treatment
Experimental: as §1, §2
The GI tracts of the animals were sectioned into stomach, duodenum, jejunum, ileum, caecum, colon, and rectum. The tissues were then sent for histology, and the transcriptomes analyzed by RNAseq.

PTPN11/SHP2-FL (E76K) = target: T1, PTPN11/SHP2-FL (E76K) (Homo sapiens, UniProt Q06124, E76K); assay: Phosphatase assay PTPN11/SHP2-FL (E76K)
T1 sequence (Q06124 2-597 isoform Q06124-1 E76K): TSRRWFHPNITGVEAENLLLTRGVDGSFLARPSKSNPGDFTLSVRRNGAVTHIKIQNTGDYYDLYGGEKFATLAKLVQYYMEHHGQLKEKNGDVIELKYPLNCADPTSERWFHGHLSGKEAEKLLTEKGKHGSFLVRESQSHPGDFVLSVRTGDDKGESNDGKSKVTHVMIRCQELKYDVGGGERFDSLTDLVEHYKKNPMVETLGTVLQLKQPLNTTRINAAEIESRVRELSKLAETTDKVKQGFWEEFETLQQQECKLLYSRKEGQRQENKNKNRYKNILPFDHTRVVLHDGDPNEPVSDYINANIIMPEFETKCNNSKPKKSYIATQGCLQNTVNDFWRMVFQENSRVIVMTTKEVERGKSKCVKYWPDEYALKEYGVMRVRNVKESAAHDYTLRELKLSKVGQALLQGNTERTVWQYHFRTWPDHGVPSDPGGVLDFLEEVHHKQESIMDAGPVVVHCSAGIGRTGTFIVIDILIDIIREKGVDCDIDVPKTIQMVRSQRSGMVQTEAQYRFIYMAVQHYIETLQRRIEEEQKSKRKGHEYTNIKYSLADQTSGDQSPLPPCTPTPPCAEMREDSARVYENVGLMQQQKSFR

[2] = target: T2, PP2A Alpha/PP2R1A Complex (Homo sapiens, UniProt P67775); assay: Phosphatase assay PP2A Alpha/PP2R1A Complex; type: biochemical
T2 construct: purchased Recation Biology Inc

PTPN2/TC-PTP = target: T3, PTPN2/TC-PTP (Homo sapiens, UniProt P17706); assay: Phosphatase assay PTPN2/TC-PTP; type: biochemical
T3 construct: purchased Recation Biology Inc
T3 sequence (P17706 1-415): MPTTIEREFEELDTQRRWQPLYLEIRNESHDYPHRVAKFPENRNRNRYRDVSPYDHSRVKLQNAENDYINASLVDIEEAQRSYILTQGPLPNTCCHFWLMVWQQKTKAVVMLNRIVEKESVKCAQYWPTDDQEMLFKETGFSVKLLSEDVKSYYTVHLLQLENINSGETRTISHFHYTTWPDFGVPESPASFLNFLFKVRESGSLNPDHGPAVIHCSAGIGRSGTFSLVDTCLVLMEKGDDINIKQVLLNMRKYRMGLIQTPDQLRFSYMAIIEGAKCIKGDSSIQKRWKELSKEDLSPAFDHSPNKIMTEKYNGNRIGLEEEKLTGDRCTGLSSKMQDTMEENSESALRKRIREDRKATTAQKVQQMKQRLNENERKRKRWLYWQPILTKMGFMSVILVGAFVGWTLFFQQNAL

PP1B = target: T4, PP1B (Homo sapiens, UniProt P62140); assay: Phosphatase assay PP1B (DiFMUP fluorescence); type: biochemical
T4 construct: purchased Recation Biology Inc

PP1A = target: T5, PP1A (Homo sapiens, UniProt P62136); assay: Phosphatase assay PP1A (DiFMUP fluorescence); type: biochemical
T5 construct: purchased Recation Biology Inc

PTPN6/SHP1 = target: T6, PTPN6/SHP1 (Homo sapiens, UniProt P29350); assay: Phosphatase assay PTPN6/SHP1; type: biochemical
T6 construct: purchased Recation Biology Inc

LXR = conditions: Ogundare et al., 2010; cited from earlier work
RXR/NURR1 = conditions: Ogundare et al., 2010; cited from earlier work
FXR = FXR (Homo sapiens, UniProt Q96RI1); conditions: Ogundare et al., 2010; cited from earlier work
[3] = Body weight of mice after i.p. deuterated ENT-03; type: in vivo
From the text: The presence of the deuterium on the side chain likely slows the action of the 2-methylacyl-coenzyme A racemase on C-25, the subsequent action of the dehydrogenase that produces the 24,25-trans-unsaturated derivative by removing the deuterium atoms at C24 and C25, and the subsequent hydration and oxidation at the C24 bond catalyzed by the D-bifunctional protein. Instead, the metabolism of ENT-03D3 will begin with the oxidation at C24 by CYP46A1, yielding the following compound: […]

PTPN11/SHP2 = PTPN11/SHP2 (Homo sapiens, UniProt Q06124); assay: Phosphatase assay PTPN11/SHP2; type: biochemical; conditions: Table 2C; read-out: Compound IC50 (M) PTPN11/SHP2

T4 sequence (P62140 whole entry): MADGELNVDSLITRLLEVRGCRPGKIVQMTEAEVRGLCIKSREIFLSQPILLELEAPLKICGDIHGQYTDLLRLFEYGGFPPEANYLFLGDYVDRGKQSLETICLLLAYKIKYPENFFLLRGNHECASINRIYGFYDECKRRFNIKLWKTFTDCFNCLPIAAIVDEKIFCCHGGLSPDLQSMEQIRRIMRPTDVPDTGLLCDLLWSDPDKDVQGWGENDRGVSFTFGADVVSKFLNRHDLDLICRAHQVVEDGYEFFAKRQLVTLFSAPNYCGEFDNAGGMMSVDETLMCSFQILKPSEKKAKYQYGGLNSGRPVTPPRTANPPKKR
Sequence of FXR (Q96RI1 whole entry, species assumed): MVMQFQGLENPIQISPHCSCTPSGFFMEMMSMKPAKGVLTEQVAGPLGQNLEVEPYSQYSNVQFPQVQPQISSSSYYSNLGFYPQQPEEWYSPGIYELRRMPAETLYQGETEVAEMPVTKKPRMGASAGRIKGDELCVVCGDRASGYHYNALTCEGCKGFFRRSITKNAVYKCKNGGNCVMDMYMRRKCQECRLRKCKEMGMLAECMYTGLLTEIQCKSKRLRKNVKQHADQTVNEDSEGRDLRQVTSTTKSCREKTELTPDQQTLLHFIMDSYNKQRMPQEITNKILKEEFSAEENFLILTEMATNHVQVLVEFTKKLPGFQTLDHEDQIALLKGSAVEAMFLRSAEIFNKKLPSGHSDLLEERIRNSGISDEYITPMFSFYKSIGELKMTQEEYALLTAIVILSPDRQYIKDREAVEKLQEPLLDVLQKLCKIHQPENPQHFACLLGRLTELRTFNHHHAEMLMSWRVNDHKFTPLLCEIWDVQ
T5 sequence (P62136 whole entry): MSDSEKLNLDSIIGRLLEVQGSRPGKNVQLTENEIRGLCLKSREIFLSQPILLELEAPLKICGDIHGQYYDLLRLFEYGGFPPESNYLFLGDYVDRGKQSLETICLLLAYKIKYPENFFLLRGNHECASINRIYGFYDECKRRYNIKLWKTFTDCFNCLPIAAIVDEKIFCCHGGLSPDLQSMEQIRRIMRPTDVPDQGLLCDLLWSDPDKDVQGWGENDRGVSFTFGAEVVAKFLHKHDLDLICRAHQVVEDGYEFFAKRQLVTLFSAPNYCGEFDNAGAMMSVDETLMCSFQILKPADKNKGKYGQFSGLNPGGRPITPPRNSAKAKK
T2 sequence (P67775 whole entry): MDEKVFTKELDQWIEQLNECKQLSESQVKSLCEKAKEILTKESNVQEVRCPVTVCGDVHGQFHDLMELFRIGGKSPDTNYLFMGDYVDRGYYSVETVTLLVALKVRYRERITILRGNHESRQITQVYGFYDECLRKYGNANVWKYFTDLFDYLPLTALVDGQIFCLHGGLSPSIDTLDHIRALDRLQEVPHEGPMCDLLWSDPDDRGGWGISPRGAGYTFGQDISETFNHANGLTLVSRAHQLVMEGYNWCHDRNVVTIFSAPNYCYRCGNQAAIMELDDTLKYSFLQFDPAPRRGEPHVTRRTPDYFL
T2 sequence (P30153 whole entry partner): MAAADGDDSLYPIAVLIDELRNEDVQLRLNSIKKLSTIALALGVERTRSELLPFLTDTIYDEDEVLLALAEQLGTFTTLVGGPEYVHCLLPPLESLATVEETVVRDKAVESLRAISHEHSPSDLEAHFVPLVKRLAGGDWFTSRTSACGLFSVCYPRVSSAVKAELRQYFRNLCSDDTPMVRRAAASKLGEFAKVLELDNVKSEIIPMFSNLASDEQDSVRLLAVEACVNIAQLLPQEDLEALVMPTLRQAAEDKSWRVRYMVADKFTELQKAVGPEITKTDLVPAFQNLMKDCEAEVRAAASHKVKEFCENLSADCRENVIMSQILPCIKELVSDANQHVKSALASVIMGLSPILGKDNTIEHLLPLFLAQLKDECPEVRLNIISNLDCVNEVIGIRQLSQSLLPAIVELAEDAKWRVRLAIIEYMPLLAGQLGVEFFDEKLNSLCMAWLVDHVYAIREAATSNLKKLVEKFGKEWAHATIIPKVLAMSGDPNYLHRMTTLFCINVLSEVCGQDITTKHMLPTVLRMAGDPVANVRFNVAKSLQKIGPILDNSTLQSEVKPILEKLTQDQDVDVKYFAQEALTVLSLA
T6 sequence (P29350 whole entry): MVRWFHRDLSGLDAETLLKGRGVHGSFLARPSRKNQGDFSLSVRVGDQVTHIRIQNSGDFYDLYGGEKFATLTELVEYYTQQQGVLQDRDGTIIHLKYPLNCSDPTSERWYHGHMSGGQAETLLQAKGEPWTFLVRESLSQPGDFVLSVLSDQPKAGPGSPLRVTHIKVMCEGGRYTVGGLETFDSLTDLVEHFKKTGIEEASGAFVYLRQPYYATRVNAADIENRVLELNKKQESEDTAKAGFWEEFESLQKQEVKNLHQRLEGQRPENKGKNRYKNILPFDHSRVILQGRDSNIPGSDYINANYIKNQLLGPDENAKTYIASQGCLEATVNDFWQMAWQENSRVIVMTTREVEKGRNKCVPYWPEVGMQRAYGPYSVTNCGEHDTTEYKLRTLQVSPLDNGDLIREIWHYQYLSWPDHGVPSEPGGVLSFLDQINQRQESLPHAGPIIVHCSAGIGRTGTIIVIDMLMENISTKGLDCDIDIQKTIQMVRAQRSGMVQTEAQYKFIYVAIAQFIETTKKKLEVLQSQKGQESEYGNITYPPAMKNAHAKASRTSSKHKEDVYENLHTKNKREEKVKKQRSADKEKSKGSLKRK

SMILES: CC(C)[C@@H](CC[C@@H](C)[C@H]1CC[C@H]2[C@@H]3[C@H](O)C[C@H]4C[C@@H](NCCCNCCCCN)CC[C@]4(C)[C@H]3CC[C@]12C)OS(=O)(=O)O (single isomer, unassigned) [ENT-01, squalamine phosphate]
number of significant features, Down-regulated, fold change threshold 1.3× ([1]; Old vs young, both treated): 1606 | number of significant features, Down-regulated, fold change threshold 2× ([1]; Old vs young, both treated): 267 | number of significant features, Down-regulated, fold change threshold 4× ([1]; Old vs young, both treated): 69 | number of significant features, Down-regulated, fold change threshold 8× ([1]; Old vs young, both treated): 36 | number of significant features, Down-regulated, fold change threshold 16× ([1]; Old vs young, both treated): 27 | number of significant features, Down-regulated, fold change threshold Any ([1]; Old vs young, both treated): 7534 | number of significant features, Up-regulated, fold change threshold 1.3× ([1]; Old vs young, both treated): 1647 | number of significant features, Up-regulated, fold change threshold 2× ([1]; Old vs young, both treated): 559 | number of significant features, Up-regulated, fold change threshold 4× ([1]; Old vs young, both treated): 263 | number of significant features, Up-regulated, fold change threshold 8× ([1]; Old vs young, both treated): 178 | number of significant features, Up-regulated, fold change threshold 16× ([1]; Old vs young, both treated): 135 | number of significant features, Up-regulated, fold change threshold Any ([1]; Old vs young, both treated): 7479 | number of significant features, Down-regulated, fold change threshold 1.3× ([1]; treatment vs control (old)): 2235 | number of significant features, Down-regulated, fold change threshold 2× ([1]; treatment vs control (old)): 431 | number of significant features, Down-regulated, fold change threshold 4× ([1]; treatment vs control (old)): 66 | number of significant features, Down-regulated, fold change threshold 8× ([1]; treatment vs control (old)): 25 | number of significant features, Down-regulated, fold change threshold 16× ([1]; treatment vs control (old)): 11 | number of significant features, Down-regulated, fold change threshold Any ([1]; treatment vs control (old)): 7460 | number of significant features, Up-regulated, fold change threshold 1.3× ([1]; treatment vs control (old)): 2430 | number of significant features, Up-regulated, fold change threshold 2× ([1]; treatment vs control (old)): 766 | number of significant features, Up-regulated, fold change threshold 4× ([1]; treatment vs control (old)): 317 | number of significant features, Up-regulated, fold change threshold 8× ([1]; treatment vs control (old)): 168 | number of significant features, Up-regulated, fold change threshold 16× ([1]; treatment vs control (old)): 116 | number of significant features, Up-regulated, fold change threshold Any ([1]; treatment vs control (old)): 7553 | number of significant features, Down-regulated, fold change threshold 1.3× ([1]; treatment vs control (young)): 2367 | number of significant features, Down-regulated, fold change threshold 2× ([1]; treatment vs control (young)): 642 | number of significant features, Down-regulated, fold change threshold 4× ([1]; treatment vs control (young)): 144 | number of significant features, Down-regulated, fold change threshold 8× ([1]; treatment vs control (young)): 47 | number of significant features, Down-regulated, fold change threshold 16× ([1]; treatment vs control (young)): 12 | number of significant features, Down-regulated, fold change threshold Any ([1]; treatment vs control (young)): 7553 | number of significant features, Up-regulated, fold change threshold 1.3× ([1]; treatment vs control (young)): 1430 | number of significant features, Up-regulated, fold change threshold 2× ([1]; treatment vs control (young)): 232 | number of significant features, Up-regulated, fold change threshold 4× ([1]; treatment vs control (young)): 58 | number of significant features, Up-regulated, fold change threshold 8× ([1]; treatment vs control (young)): 38 | number of significant features, Up-regulated, fold change threshold 16× ([1]; treatment vs control (young)): 28 | number of significant features, Up-regulated, fold change threshold Any ([1]; treatment vs control (young)): 7460 | mRNA levels for all of the genes in Table 5A, in words (stomach mRNA): significant increase

IC50 (PTPN11/SHP2-FL (E76K)): 43 nM
SMILES: CC(CCCC(C)C1CCC2C3C(O)CC4CC(NCCCNCCCCN)CCC4(C)C3CC(O)C12C)C(=O)O (single isomer, unassigned) [ENT-05]

SMILES: CC(CCCC(C)C1CCC2C3C(O)CC4CC(NCCCNCCCCN)CCC4(C)C3CCC12C)C(=O)O (single isomer, unassigned) [ENT-06]
activity at PP2A alpha, in words [2]: inactive | activity at PTPN2, in words (PTPN2/TC-PTP): inactive | activity at PP1B, in words (PP1B): inactive | activity at PP1A, in words (PP1A): inactive | IC50 (PTPN11/SHP2-FL (E76K)): 345 nM | activity at PTPN6/SHP1, in words (PTPN6/SHP1): inactive

SMILES: C[C@H](CCC[C@@H](C)[C@H]1CCC2C3C(CC[C@@]21C)[C@@]1(C)CCC(=O)C=C1C[C@H]3O)C(=O)O (stereo partly drawn) [7-HOCA, 7-alpha hydroxy-3-oxo-4-cholestenoic acid]
activation of LXR receptor (LXR): did not activate | activation of RXR/NURR1 receptors (RXR/NURR1): did not activate | activation of FXR receptor (FXR): did not activate

SMILES: [2H]C([2H])(CCC(C)C1CCC2C3C(O)CC4CC(NCCCNCCCCNCCCN)CCC4(C)C3CCC12C)C([2H])(C)C(=O)O (stereo not drawn) [ENT-03D3]
effect on body weight, in words [3]: gained weight

SMILES: CCc1oc2cc(S(=O)(=O)Nc3ccc(S(=O)(=O)Nc4nccs4)cc3)ccc2c1C(=O)c1cc(Br)c(O)c(Br)c1 [PTP1B Inhibitor, 3-(3,5-Dibromo-4-hydroxy-benzoyl)-2-ethyl-benzofuran-6-sulfonicacid-(4-(thiazol-2-ylsulfamyl)-phenyl)-amide]
IC50 (PTPN11/SHP2): 1.82e-06 M
